# Assay results: publication PMC3943433 (Journal of medicinal chemistry, 2013)
# Read-outs that look alike come from different tables or passages of the source.
# Assays:
# SHV K234R β-lactamase [1] = target: T1, SHV K234R β-lactamase (Klebsiella pneumoniae, UniProt P0AD64, K230R); assay: Far-UV circular dichroism and thermal denaturation in the presence of inhibitors; conditions: for ΔHVH: K234R 10 µM with 50 µM inhibitor, van't Hoff plot; for effect on secondary structure (far UV CD): K234R 10 µM, 50 µM inhibitor
# SHV-1 β-lactamase [2] = target: T2, SHV-1 β-lactamase (Klebsiella pneumoniae, UniProt P0AD64)
# SHV K234R β-lactamase [3] = target: T1, SHV K234R β-lactamase; assay: Ki by direct competition assay with nitrocefin; type: biochemical; conditions: for fold lower Ki for K234R relative to SHV-1: K234R vs SHV-1
# SHV-1 β-lactamase [4] = target: T2, SHV-1 β-lactamase; type: biochemical
# SHV K234R β-lactamase [5] = target: T1, SHV K234R β-lactamase; assay: Steady-state kinetics with β-lactam substrates; type: biochemical; conditions: K234R relative to SHV-1, from kcat/Km (eq 3)
# [6] = test system: E. coli DH10B expressing blaSHV K234X (other 16 amino acid substitutions); assay: MIC by Mueller-Hinton agar dilution; type: cell-based; conditions: Escherichia coli, E. coli blaSHV K234X (other 16 substitutions); β-lactam alone
# [7] = test system: CC(=O)OCC1=C(C(=O)O)N2C(=O)[C@@H](NC(=O)Cc3cccs3)[C@H]2SC1; assay: Steady-state kinetics with β-lactam substrates; type: biochemical, Klebsiella pneumoniae; conditions: other: SHV-1, substrate, 10 mM PBS pH 7.4, room temperature
# [8] = test system: CCN1CCN(C(=O)N[C@@H](C(=O)N[C@@H]2C(=O)N3[C@@H]2SC(C)(C)[C@@H]3C(=O)O)c2ccccc2)C(=O)C1=O; assay: Steady-state kinetics with β-lactam substrates; type: biochemical, Klebsiella pneumoniae; conditions: other: SHV-1, substrate, 10 mM PBS pH 7.4, room temperature
# [9] = test system: O=C(Cc1cccs1)N[C@@H]1C(=O)N2C(C(=O)O)=C(/C=C/c3ccc([N+](=O)[O-])cc3[N+](=O)[O-])CS[C@H]12; assay: Steady-state kinetics with β-lactam substrates; type: biochemical, Klebsiella pneumoniae; conditions: other: SHV-1, substrate, 10 mM PBS pH 7.4, room temperature
# [10] = test system: E. coli DH10B expressing blaSHV-1; assay: MIC by Mueller-Hinton agar dilution; type: cell-based; conditions: E. coli blaSHV-1; inhibitor in the presence of 50 µg/mL ampicillin
# [11] = test system: E. coli DH10B expressing blaSHV K234A; type: cell-based; conditions: inhibitor in the presence of 50 µg/mL ampicillin
# E. coli DH10B = type: cell-based; conditions: inhibitor in the presence of 50 µg/mL ampicillin
# [12] = test system: E. coli DH10B expressing blaSHV K234R; type: cell-based; conditions: inhibitor in the presence of 50 µg/mL ampicillin
# [13] = SHV-1 10 µM with 50 µM inhibitor, van't Hoff plot
compound,measurement,setting,value
O=C(Cc1cccs1)NCB(O)O [Achiral Cephalothin BATSI],ΔHVH,SHV K234R β-lactamase [1],418 kJ/mol
same,effect on secondary structure (far UV CD),SHV K234R β-lactamase [1],affect the secondary structure
same,ΔHVH,SHV-1 β-lactamase [2]; [13],669 kJ/mol
N[C@@H](C(=O)N[C@@H](Cc1cccc(C(=O)O)c1)B(O)O)c1ccccc1 [Chiral Ampicillin BATSI],ΔHVH,SHV K234R β-lactamase [1],498 kJ/mol
same,increase of melting temperature,SHV K234R β-lactamase [1]; K234R with inhibitor vs apo,6.6 °C
same,ΔHVH,SHV-1 β-lactamase [2]; [13],598 kJ/mol
same,fold lower Ki for K234R relative to SHV-1,SHV K234R β-lactamase [3],23 fold
O=C(Cc1cccs1)N[C@@H](Cc1cccc(C(=O)O)c1)B(O)O [Chiral Cephalothin BATSI],fold lower Ki than the achiral BATSI,SHV-1 β-lactamase [4],44 fold
same,"fold difference in Ki, achiral vs chiral cephalothin BATSI",SHV K234R β-lactamase [3]; K234R,5000 fold
same,fold lower Ki for K234R relative to SHV-1,SHV K234R β-lactamase [3],38 fold
"O=C(O)[C@H]1/C(=C/CO)O[C@@H]2CC(=O)N21 [Clavulanate, clavulanate]",ΔHVH,SHV K234R β-lactamase [1],285 kJ/mol
same,effect on secondary structure (far UV CD),SHV K234R β-lactamase [1],affects the secondary structure of both enzymes
same,effect on secondary structure (far UV CD),SHV-1 β-lactamase [2],affects the secondary structure of both enzymes
same,ΔHVH,SHV-1 β-lactamase [2],473 kJ/mol
same,ΔΔGu,SHV-1 β-lactamase [2],+0.28 kcal/mol
"O=C(Cc1cccs1)N[C@@H]1C(=O)N2C(C(=O)O)=C(/C=C/c3ccc([N+](=O)[O-])cc3[N+](=O)[O-])CS[C@H]12 [Nitrocefin, nitrocefin]",ΔΔGcat,SHV K234R β-lactamase [5],+0.70 kcal/mol
"CC1(C)[C@H](C(=O)O)N2C(=O)C[C@H]2S1(=O)=O [Sulbactam, sulbactam]",effect on secondary structure (far UV CD),SHV K234R β-lactamase [1],affect the secondary structure
same,effect on secondary structure (far UV CD),SHV-1 β-lactamase [2],not SHV-1
same,ΔHVH,SHV-1 β-lactamase [2],766 kJ/mol
same,ΔΔGu,SHV-1 β-lactamase [2],+0.07 kcal/mol
"C[C@]1(Cn2ccnn2)[C@H](C(=O)O)N2C(=O)C[C@H]2S1(=O)=O [Tazobactam, tazobactam]",ΔHVH,SHV K234R β-lactamase [1],477 kJ/mol
same,effect on secondary structure (far UV CD),SHV K234R β-lactamase [1],affect the secondary structure
same,ΔHVH,SHV-1 β-lactamase [2]; [13],623 kJ/mol
same,effect on secondary structure (far UV CD),"SHV-1 β-lactamase [2]; SHV-1 10 µM, 50 µM inhibitor",not SHV-1
"CC1(C)S[C@@H]2[C@H](NC(=O)[C@H](N)c3ccccc3)C(=O)N2[C@H]1C(=O)O [amp, ampicillin]",MIC,[6],≤ 4 mg/L
"CCN1CCN(C(=O)N[C@@H](C(=O)N[C@@H]2C(=O)N3[C@@H]2SC(C)(C)[C@@H]3C(=O)O)c2ccccc2)C(=O)C1=O [pip, piperacillin]",MIC,[6],≤ 8 mg/L
same,ΔΔGcat,SHV K234R β-lactamase [5],+0.33 kcal/mol
"CC(=O)OCC1=C(C(=O)O)N2C(=O)[C@@H](NC(=O)Cc3cccs3)[C@H]2SC1 [thin, cephalothin]",ΔΔGcat,SHV K234R β-lactamase [5],+1.00 kcal/mol
SHV-1 β-lactamase (Klebsiella pneumoniae),Km,[7],48.9 ± 11.2 µM
same,kcat,[7],42.6 ± 3.4 s⁻¹
same,kcat/Km,[7],870000 ± 300000 M⁻¹ s⁻¹
same,Km,[8],74.6 ± 11.7 µM
same,kcat,[8],1180 ± 65 s⁻¹
same,kcat/Km,[8],1.58e+07 ± 600000 M⁻¹ s⁻¹
same,Km,[9],24.7 ± 5 µM
same,kcat,[9],348 ± 21.5 s⁻¹
same,kcat/Km,[9],1.41e+07 ± 220000 M⁻¹ s⁻¹
ampicillin/clavulanate [amp/ clav],MIC,[10],4 mg/L
same,MIC,[11],<0.06 mg/L
same,MIC,E. coli DH10B,<0.06 mg/L
same,MIC,[12],16 mg/L
ampicillin/sulbactam [amp/ sul],MIC,[10],512 mg/L
same,MIC,[11],<0.06 mg/L
same,MIC,E. coli DH10B,<0.06 mg/L
same,MIC,[12],64 mg/L
ampicillin/tazobactam [amp/ tazo],MIC,[10],128 mg/L
same,MIC,[11],<0.06 mg/L
same,MIC,E. coli DH10B,<0.06 mg/L
same,MIC,[12],16 mg/L
